This is an account of results in patent US12649980B2, “Three-dimensional surface for protein and small molecule microarrays” (The Johns Hopkins University, priority 2019, dated 2026).

In one data set the target is T1, GLUT1 (Homo sapiens, UniProt P11166).
T1 construct: The full-length human SLC2A1, SLC2A3, and SLC2A4 genes were PCR amplified and inserted into pLenti6M vector 2; expressed in transfected cells
T1 sequence (P11166 1-492): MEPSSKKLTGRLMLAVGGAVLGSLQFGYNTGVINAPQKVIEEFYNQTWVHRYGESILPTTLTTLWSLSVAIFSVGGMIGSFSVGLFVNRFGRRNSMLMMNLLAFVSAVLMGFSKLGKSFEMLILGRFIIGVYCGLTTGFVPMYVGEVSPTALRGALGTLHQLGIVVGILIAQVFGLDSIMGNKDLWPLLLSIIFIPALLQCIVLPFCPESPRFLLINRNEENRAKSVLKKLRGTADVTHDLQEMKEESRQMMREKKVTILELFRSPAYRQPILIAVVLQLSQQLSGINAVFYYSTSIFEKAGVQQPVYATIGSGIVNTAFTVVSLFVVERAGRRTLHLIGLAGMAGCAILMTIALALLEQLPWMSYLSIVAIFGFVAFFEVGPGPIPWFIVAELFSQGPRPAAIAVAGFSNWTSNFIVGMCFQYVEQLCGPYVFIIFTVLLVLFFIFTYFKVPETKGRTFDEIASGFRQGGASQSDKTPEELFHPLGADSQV
Description: rapafucin 2D microarray screen with GLUT1-containing cell lysate. Type of data set: binding. The following applies: signal-to-background ratio, 2D surface, same lysate and conditions. The text has this: Once stock solutions of the rapafucin library were arrayed on the 2D or 3D surface and most of solvent carrier was evaporated, the crosslinking reaction was initiated by irradiating the surfaces with 365-nm wavelength UV light. Kawatani and Osada, Medchemcomm 2014, 5, 277-287. […] To screen for GLUT1-interacting rapafucins, GLUT1 was stably overexpressed in HEK293T cells and generated cell lysates containing detergent-solubilized recombinant GLUT1 (FIG. 10). The GLUT1-containing cell lysate was then incubated on both 2D and 3D rapafucin microarrays. After washing the slides to remove unbound proteins, the bound GLUT1 protein was detected with anti-GLUT1 antibodies, followed by visualization with Cy5-labeled secondary antibodies using a microarray scanner. Rapafucins were scored as positive hits when the corresponding SBR was greater than 3. Based on this criterion, a total of 17 rapafucin hits and one positive control BAY-876, a specific GLUT1 inhibitor, Siebeneicher et al., ChemMedChem 2016, 11, 2261-2271, were identified on the 3D rapafucin microarray. In contrast, only one hit (WL13-F11, also among the 17 hits identified from the 3D rapafucin microarray) was identified on the 2D rapafucin microarray (Table 1, FIG. 11).
In the optimization experiments, the slides were incubated with 50 nM purified recombinant FKBP12 for 1 hour, while in the GLUT1 screening, 10 mg/mL of cell lysate containing DDM-solubilized GLUT1 from GLUT1 overexpressed HEK293T was incubated for 1 hour. Successively, primary antibody and CY5 labeled secondary antibody were added for 1 hour. The chips were washed in buffer A for 5 mins 3 times after the sample and antibodies incubation. After centrifugation, the dried chips were scanned by a microarray scanner (Genepix, US) at 635-nm wavelength. The final result was analyzed by GenePix software.

In the next data set the test system is AMPK and mTOR activity. As to the kind of experiment: Western blot of AMPK and mTOR (S6K) activity in MCF-7 cells. Type of data set: cell-based, human. The following applies: MCF-7, time- and dose-dependent. The source says:
The increase in AMP/ATP ratio, in turn, is expected to activate AMPK, leading to the inhibition of the mTOR signaling pathway. Liu et al., Mol. Cancer Ther. 2012, 11, 1672-1682; Head et al., ACS Chem. Biol. 2017, 12, 174-182. The effect of RgA on AMPK and mTOR activity in MCF-7 cells was therefore determined.
For western blot analysis, cells were harvested and lysed by RIPA buffer plus protease inhibitor. Cell lysates or samples from pull-down experiment were subjected to SDS/PAGE and then transferred to a nitrocellulose membrane. Membranes were first blocked in 5% (wt/vol) BSA in Tris-buffered saline plus 0.1% Tween 20 (TBST) at room temperature for 30 min and incubated with primary antibodies at 4° C. for overnight. Membranes were then washed three times with TBST and incubated with secondary antibodies at room temperature for another 1 h. Membranes were washed with TBST three times again and incubated with ECL substrate for 1 min at room temperature. Pictures were captured using a GeneSys Image Station.

For another data set, the system named is MCF-7 tumors. Description: MCF-7 breast cancer xenograft in NSG mice. Type of data set: in vivo. The procedure:
Given that RgA inhibited multiple isoforms of GLUTs, including GLUT1, 3, and 4, it raised the question of whether animals could tolerate RgA. As breast cancer cell lines are more sensitive to RgA than other cell lines (FIG. 6A and Table 3), the anti-breast cancer activity of RgA in vivo was assessed. Two breast cancer cell lines were selected for the xenograft experiment-MCF-7, an ER+, HER2− line, and HCC1954, an ER−, HER2+ breast line. NSG mice bearing MCF-7 tumors were given daily vehicle or RgA at a dose of 2 mg/kg for […].
All animal studies were conducted in compliance with all relevant ethical regulations set forth by the Johns Hopkins University Animal Care and Use Committee (ACUC). Female mice aged 4-6 weeks and weighing 18-22 g were maintained in a pathogen-free facility at Johns Hopkins Medical Institutions and cared for according to National Institutes of Health guidelines and under a protocol approved by the Johns Hopkins University Animal Care Committee. For the xenograft experiment of MCF-7, 17β-estradiol pellets (0.72 mg per pellet, 60-day release, Innovative Research of America, FL) were implanted at 5 days prior to tumor cell injection. Approximately 5 million MCF-7 cells were implanted subcutaneously into NSG mice (n=6 per group, NSG, The Jackson Laboratory). For the xenograft experiment of HCC1954, approximately 2 million cells were implanted subcutaneously into athymic nude mice (n=6 per group, NCr-nu/nu, Charles River). After tumors became palpable, the mice bearing MCF-7 and HCC1954 tumors were treated with either vehicle (saline with 5% PEG400, 5% Tween80 and 5% DMSO) or RgA via intraperitoneal injection every day. The tumor volume was measured periodically using a Vernier caliper and calculated according to the modified ellipsoid formula: tumor volume (mm^3)=(short axis)^2×(long axis)×π/6. After 30 days of treatment, the mice were killed, and the tumor tissues were extracted and stored in 10% formalin solution for future use.

As for `CCC(C)C1C(=O)NCC(=O)N(C)CCC=CC(=O)OCC(C)(C)C(=O)C(=O)N2CCCCC2C(=O)OC(CCc2ccc(OC)c(OC)c2)c2cccc(c2)NC(=O)CCC(=O)N(C)C(CC(C)C)C(=O)NC(Cc2ccccc2)C(=O)N1C` (stereo not drawn) [JW11-D2, Rapaglutin A], the “2D SBR” value at GLUT1 is less than 3.0. Further, in the data set with AMPK and mTOR activity, the AMPK activity result is recorded as “activated AMPK” and the mTOR activity entry was “inhibited mTOR activity”. For the same compound, the tumor weight with MCF-7 tumors (MCF-7 in NSG mice, 2 mg/kg daily, vehicle 454 mg) is listed as 285 mg. In addition, the “tumor volume index on day 38” value in the data set on MCF-7 tumors (MCF-7 in NSG mice, 2 mg/kg intraperitoneally daily, vehicle 2.84) was 1.70. For the same compound, the “weight loss and signs of adverse effects” value with MCF-7 tumors (MCF-7 xenograft mice, 2 mg/kg daily) is listed as “no significant weight loss or any signs of adverse effects”.
